Data taken from the NIST ThermoML archive (doi:10.1016/j.fluid.2018.04.024).
± gives the expanded uncertainty stated by the source.

conditions: 293.15 K; 100 kPa; Liquid; Vibrating tube method

| mass density [kg/m3] | SMILES |
| --- | --- |
| 898.42 ± 0.92 | CCCC(=O)OC [methyl butanoate] |
| 880.16 ± 0.91 | CCCCCCC(=O)OC [methyl heptanoate] |
| 884.48 ± 0.91 | CCCCCC(=O)OC [methyl hexanoate] |
| 874.53 ± 0.9 | CCCCCCCCC(=O)OC [methyl nonanoate] |

same assay, conditions: 293.15 K; 1000 kPa; Liquid; Vibrating tube method

| mass density [kg/m3] | SMILES |
| --- | --- |
| 898.68 ± 0.92 | CCCC(=O)OC [methyl butanoate] |
| 880.29 ± 0.91 | CCCCCCC(=O)OC [methyl heptanoate] |
| 884.65 ± 0.91 | CCCCCC(=O)OC [methyl hexanoate] |
| 874.57 ± 0.9 | CCCCCCCCC(=O)OC [methyl nonanoate] |

same assay, conditions: 293.15 K; 3000 kPa; Liquid; Vibrating tube method

| mass density [kg/m3] | SMILES |
| --- | --- |
| 900.65 ± 0.93 | CCCC(=O)OC [methyl butanoate] |
| 881.98 ± 0.91 | CCCCCCC(=O)OC [methyl heptanoate] |
| 886.42 ± 0.91 | CCCCCC(=O)OC [methyl hexanoate] |
| 876.13 ± 0.9 | CCCCCCCCC(=O)OC [methyl nonanoate] |

same assay, conditions: 293.15 K; 5000 kPa; Liquid; Vibrating tube method

| mass density [kg/m3] | SMILES |
| --- | --- |
| 902.15 ± 0.93 | CCCC(=O)OC [methyl butanoate] |
| 883.19 ± 0.91 | CCCCCCC(=O)OC [methyl heptanoate] |
| 887.67 ± 0.92 | CCCCCC(=O)OC [methyl hexanoate] |
| 877.24 ± 0.91 | CCCCCCCCC(=O)OC [methyl nonanoate] |

same assay, conditions: 293.15 K; 10000 kPa; Liquid; Vibrating tube method

| mass density [kg/m3] | SMILES |
| --- | --- |
| 906.55 ± 0.94 | CCCC(=O)OC [methyl butanoate] |
| 886.99 ± 0.92 | CCCCCCC(=O)OC [methyl heptanoate] |
| 891.64 ± 0.93 | CCCCCC(=O)OC [methyl hexanoate] |
| 880.79 ± 0.92 | CCCCCCCCC(=O)OC [methyl nonanoate] |

same assay, conditions: 293.15 K; 15000 kPa; Liquid; Vibrating tube method

| mass density [kg/m3] | SMILES |
| --- | --- |
| 910.63 ± 0.95 | CCCC(=O)OC [methyl butanoate] |
| 890.49 ± 0.93 | CCCCCCC(=O)OC [methyl heptanoate] |
| 895.33 ± 0.93 | CCCCCC(=O)OC [methyl hexanoate] |
| 884.05 ± 0.93 | CCCCCCCCC(=O)OC [methyl nonanoate] |

same assay, conditions: 293.15 K; 20000 kPa; Liquid; Vibrating tube method

| mass density [kg/m3] | SMILES |
| --- | --- |
| 914.51 ± 0.95 | CCCC(=O)OC [methyl butanoate] |
| 893.86 ± 0.94 | CCCCCCC(=O)OC [methyl heptanoate] |
| 898.81 ± 0.94 | CCCCCC(=O)OC [methyl hexanoate] |
| 887.23 ± 0.93 | CCCCCCCCC(=O)OC [methyl nonanoate] |

same assay, conditions: 293.15 K; 25000 kPa; Liquid; Vibrating tube method

| mass density [kg/m3] | SMILES |
| --- | --- |
| 918.33 ± 0.96 | CCCC(=O)OC [methyl butanoate] |
| 897.18 ± 0.95 | CCCCCCC(=O)OC [methyl heptanoate] |
| 902.28 ± 0.95 | CCCCCC(=O)OC [methyl hexanoate] |
| 890.33 ± 0.94 | CCCCCCCCC(=O)OC [methyl nonanoate] |

same assay, conditions: 293.15 K; 30000 kPa; Liquid; Vibrating tube method

| mass density [kg/m3] | SMILES |
| --- | --- |
| 921.95 ± 0.97 | CCCC(=O)OC [methyl butanoate] |
| 900.36 ± 0.95 | CCCCCCC(=O)OC [methyl heptanoate] |
| 905.55 ± 0.96 | CCCCCC(=O)OC [methyl hexanoate] |
| 893.33 ± 0.95 | CCCCCCCCC(=O)OC [methyl nonanoate] |

same assay, conditions: 293.15 K; 35000 kPa; Liquid; Vibrating tube method

| mass density [kg/m3] | SMILES |
| --- | --- |
| 925.38 ± 0.97 | CCCC(=O)OC [methyl butanoate] |
| 903.34 ± 0.96 | CCCCCCC(=O)OC [methyl heptanoate] |
| 908.69 ± 0.96 | CCCCCC(=O)OC [methyl hexanoate] |
| 896.14 ± 0.96 | CCCCCCCCC(=O)OC [methyl nonanoate] |

same assay, conditions: 293.15 K; 40000 kPa; Liquid; Vibrating tube method

| mass density [kg/m3] | SMILES |
| --- | --- |
| 928.67 ± 0.98 | CCCC(=O)OC [methyl butanoate] |
| 906.22 ± 0.97 | CCCCCCC(=O)OC [methyl heptanoate] |
| 911.73 ± 0.97 | CCCCCC(=O)OC [methyl hexanoate] |
| 898.87 ± 0.97 | CCCCCCCCC(=O)OC [methyl nonanoate] |

same assay, conditions: 293.15 K; 50000 kPa; Liquid; Vibrating tube method

| mass density [kg/m3] | SMILES |
| --- | --- |
| 935.38 ± 0.99 | CCCC(=O)OC [methyl butanoate] |
| 912.14 ± 0.98 | CCCCCCC(=O)OC [methyl heptanoate] |
| 917.83 ± 0.98 | CCCCCC(=O)OC [methyl hexanoate] |
| 904.41 ± 0.98 | CCCCCCCCC(=O)OC [methyl nonanoate] |

same assay, conditions: 293.15 K; 60000 kPa; Liquid; Vibrating tube method

| mass density [kg/m3] | SMILES |
| --- | --- |
| 941.12 ± 1 | CCCC(=O)OC [methyl butanoate] |
| 917.16 ± 1 | CCCCCCC(=O)OC [methyl heptanoate] |
| 923.06 ± 1 | CCCCCC(=O)OC [methyl hexanoate] |
| 909.15 ± 0.99 | CCCCCCCCC(=O)OC [methyl nonanoate] |

same assay, conditions: 303.15 K; 100 kPa; Liquid; Vibrating tube method

| mass density [kg/m3] | SMILES |
| --- | --- |
| 886.68 ± 0.91 | CCCC(=O)OC [methyl butanoate] |
| 870.66 ± 0.9 | CCCCCCC(=O)OC [methyl heptanoate] |
| 874.56 ± 0.9 | CCCCCC(=O)OC [methyl hexanoate] |
| 865.62 ± 0.89 | CCCCCCCCC(=O)OC [methyl nonanoate] |

same assay, conditions: 303.15 K; 1000 kPa; Liquid; Vibrating tube method

| mass density [kg/m3] | SMILES |
| --- | --- |
| 887.75 ± 0.91 | CCCC(=O)OC [methyl butanoate] |
| 871.46 ± 0.9 | CCCCCCC(=O)OC [methyl heptanoate] |
| 875.42 ± 0.9 | CCCCCC(=O)OC [methyl hexanoate] |
| 866.39 ± 0.89 | CCCCCCCCC(=O)OC [methyl nonanoate] |

same assay, conditions: 303.15 K; 3000 kPa; Liquid; Vibrating tube method

| mass density [kg/m3] | SMILES |
| --- | --- |
| 889.67 ± 0.92 | CCCC(=O)OC [methyl butanoate] |
| 873.07 ± 0.9 | CCCCCCC(=O)OC [methyl heptanoate] |
| 877.13 ± 0.91 | CCCCCC(=O)OC [methyl hexanoate] |
| 867.88 ± 0.9 | CCCCCCCCC(=O)OC [methyl nonanoate] |

same assay, conditions: 303.15 K; 5000 kPa; Liquid; Vibrating tube method

| mass density [kg/m3] | SMILES |
| --- | --- |
| 891.54 ± 0.92 | CCCC(=O)OC [methyl butanoate] |
| 874.66 ± 0.91 | CCCCCCC(=O)OC [methyl heptanoate] |
| 878.76 ± 0.91 | CCCCCC(=O)OC [methyl hexanoate] |
| 869.35 ± 0.9 | CCCCCCCCC(=O)OC [methyl nonanoate] |

same assay, conditions: 303.15 K; 10000 kPa; Liquid; Vibrating tube method

| mass density [kg/m3] | SMILES |
| --- | --- |
| 895.99 ± 0.93 | CCCC(=O)OC [methyl butanoate] |
| 878.5 ± 0.92 | CCCCCCC(=O)OC [methyl heptanoate] |
| 882.75 ± 0.92 | CCCCCC(=O)OC [methyl hexanoate] |
| 872.9 ± 0.91 | CCCCCCCCC(=O)OC [methyl nonanoate] |

same assay, conditions: 303.15 K; 15000 kPa; Liquid; Vibrating tube method

| mass density [kg/m3] | SMILES |
| --- | --- |
| 900.35 ± 0.94 | CCCC(=O)OC [methyl butanoate] |
| 882.18 ± 0.92 | CCCCCCC(=O)OC [methyl heptanoate] |
| 886.63 ± 0.93 | CCCCCC(=O)OC [methyl hexanoate] |
| 876.32 ± 0.92 | CCCCCCCCC(=O)OC [methyl nonanoate] |

same assay, conditions: 303.15 K; 20000 kPa; Liquid; Vibrating tube method

| mass density [kg/m3] | SMILES |
| --- | --- |
| 904.45 ± 0.95 | CCCC(=O)OC [methyl butanoate] |
| 885.64 ± 0.93 | CCCCCCC(=O)OC [methyl heptanoate] |
| 890.21 ± 0.94 | CCCCCC(=O)OC [methyl hexanoate] |
| 879.53 ± 0.93 | CCCCCCCCC(=O)OC [methyl nonanoate] |

same assay, conditions: 303.15 K; 25000 kPa; Liquid; Vibrating tube method

| mass density [kg/m3] | SMILES |
| --- | --- |
| 908.4 ± 1 | CCCC(=O)OC [methyl butanoate] |
| 889.08 ± 0.94 | CCCCCCC(=O)OC [methyl heptanoate] |
| 893.78 ± 0.94 | CCCCCC(=O)OC [methyl hexanoate] |
| 882.74 ± 0.94 | CCCCCCCCC(=O)OC [methyl nonanoate] |

same assay, conditions: 303.15 K; 30000 kPa; Liquid; Vibrating tube method

| mass density [kg/m3] | SMILES |
| --- | --- |
| 912.18 ± 0.96 | CCCC(=O)OC [methyl butanoate] |
| 892.3 ± 0.95 | CCCCCCC(=O)OC [methyl heptanoate] |
| 897.24 ± 0.95 | CCCCCC(=O)OC [methyl hexanoate] |
| 885.85 ± 0.95 | CCCCCCCCC(=O)OC [methyl nonanoate] |

same assay, conditions: 303.15 K; 35000 kPa; Liquid; Vibrating tube method

| mass density [kg/m3] | SMILES |
| --- | --- |
| 915.86 ± 0.97 | CCCC(=O)OC [methyl butanoate] |
| 895.46 ± 0.96 | CCCCCCC(=O)OC [methyl heptanoate] |
| 900.52 ± 0.96 | CCCCCC(=O)OC [methyl hexanoate] |
| 888.79 ± 0.95 | CCCCCCCCC(=O)OC [methyl nonanoate] |

same assay, conditions: 303.15 K; 40000 kPa; Liquid; Vibrating tube method

| mass density [kg/m3] | SMILES |
| --- | --- |
| 919.34 ± 0.98 | CCCC(=O)OC [methyl butanoate] |
| 898.49 ± 0.97 | CCCCCCC(=O)OC [methyl heptanoate] |
| 903.67 ± 0.97 | CCCCCC(=O)OC [methyl hexanoate] |
| 891.61 ± 0.96 | CCCCCCCCC(=O)OC [methyl nonanoate] |

same assay, conditions: 303.15 K; 50000 kPa; Liquid; Vibrating tube method

| mass density [kg/m3] | SMILES |
| --- | --- |
| 926.18 ± 0.99 | CCCC(=O)OC [methyl butanoate] |
| 904.43 ± 0.98 | CCCCCCC(=O)OC [methyl heptanoate] |
| 909.79 ± 0.98 | CCCCCC(=O)OC [methyl hexanoate] |
| 897.21 ± 0.98 | CCCCCCCCC(=O)OC [methyl nonanoate] |

same assay, conditions: 303.15 K; 60000 kPa; Liquid; Vibrating tube method

| mass density [kg/m3] | SMILES |
| --- | --- |
| 932.54 ± 1 | CCCC(=O)OC [methyl butanoate] |
| 909.95 ± 0.99 | CCCCCCC(=O)OC [methyl heptanoate] |
| 915.57 ± 1 | CCCCCC(=O)OC [methyl hexanoate] |
| 902.44 ± 0.99 | CCCCCCCCC(=O)OC [methyl nonanoate] |
